Structures can show the parent of a compound that is named as a salt.

The target of one experiment is serotonin transporter (Rattus norvegicus, UniProt P31652). Kind of experiment: Serotonin transporter/uptake assay: synaptosomal uptake of 3H-5-hydroxytryptamine. Type of experiment: biochemical.
serotonin transporter, sequence (P31652 whole entry): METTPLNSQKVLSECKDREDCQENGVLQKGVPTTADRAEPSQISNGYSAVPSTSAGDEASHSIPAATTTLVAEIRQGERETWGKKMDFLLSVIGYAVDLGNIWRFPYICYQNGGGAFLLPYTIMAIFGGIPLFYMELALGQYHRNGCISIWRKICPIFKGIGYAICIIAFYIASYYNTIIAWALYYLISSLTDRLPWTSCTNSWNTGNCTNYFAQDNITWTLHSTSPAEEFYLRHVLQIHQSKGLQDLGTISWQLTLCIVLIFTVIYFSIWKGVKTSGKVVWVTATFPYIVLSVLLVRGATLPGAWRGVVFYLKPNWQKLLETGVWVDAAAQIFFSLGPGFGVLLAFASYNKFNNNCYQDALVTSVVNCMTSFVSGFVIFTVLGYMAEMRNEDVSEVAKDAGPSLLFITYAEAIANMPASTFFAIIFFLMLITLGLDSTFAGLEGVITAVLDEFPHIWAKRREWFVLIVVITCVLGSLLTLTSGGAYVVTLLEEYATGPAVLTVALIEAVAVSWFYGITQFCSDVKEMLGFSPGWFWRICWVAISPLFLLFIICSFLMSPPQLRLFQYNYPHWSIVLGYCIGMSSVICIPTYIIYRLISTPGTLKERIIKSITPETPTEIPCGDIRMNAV
Settings: not given
The method, then: In this example the biological activity of the compounds of the invention are determined using a serotonin transporter/uptake assay. Serotonin transporters/uptake sites on nerve terminals presumably function to terminate neuronal signaling by removing serotonin from the synaptic cleft. The activity of the serotonin transporter integral protein can be measured in vitro by synaptosomal uptake of ^3H-5-hydroxytryptamine.
Preparations are performed at 0-4° C. Cerebral cortices from male Wistar rats (150-200 g) are homogenized for 5-10 seconds in 100 volumes of ice-cold 0.32 M sucrose containing 1 mM pargyline, and using a motor driven teflon pestle in a glass homogenizing vessel.
Monoamine oxidase activity becomes inhibited by pargyline.
The homogenate is centrifuged at 1000×g for 10 minutes. The resulting supernatant is subjected to centrifugation at 27,000×g for 50 minutes, and the supernatant is discarded. The pellet (P2) is re-suspended in oxygenated (equilibrated with an atmosphere of 96% O2: 4% CO2 for at least 30 minutes) Krebs-Ringer incubation buffer (1000 ml per g of original tissue) at pH 7.2, containing 122 mM NaCl, 0.16 mM EDTA, 4.8 mM KCl, 12.7 mM Na2HPO4, 3.0 mM NaH2PO4, 1.2 mM MgSO4, 1 mM CaCl2, 10 mM glucose and 1 mM ascorbic acid.
Aliquots of 4.0 ml tissue suspension are added to 100 μl of test solution and 100 μl of ^3H-5-HT (1 nM, final concentration), mixed and incubated for 30 minutes at 37° C. Non-specific uptake is determined using Citalopram (1 μM, final concentration; Available from H. Lundbeck, Denmark), a serotonin reuptake inhibitor.
After incubation the samples are poured directly onto Whatman GF/C glass fibre filters under suction. The filters are washed three times with 5 ml of ice-cold 0.9% (w/v) NaCl solution.
The amount of radioactivity on the filters is determined by conventional liquid scintillation counting. Specific uptake is calculated as the difference between total uptake and non-specific uptake.
25-75% inhibition of specific binding must be obtained, before calculation of an IC50.
The test value is presented as IC50 (the concentration (μM) of the test substance which inhibits the specific binding of ^3H-5-HT by 50%), calculated according to the following equation: […]
where Co is specific binding in control assays and Cx is the specific binding in the test assay (the calculations assume normal mass-action kinetics).
As a reminder, the IC50 is the concentration needed to halve the response being measured. `c1ccc2nc(N3C[C@@H]4C[C@H]3CN4)ccc2c1` [Compound 1, 2-(2-Quinolinyl)-(1S,4S)-2,5-diazabicyclo-[2.2.1]-heptane fumaric acid salt]: the concentration for half-maximal inhibition (IC50) came out at 88 nM.

Take `O=[N+]([O-])c1ccc2nc(N3C[C@@H]4C[C@H]3CN4)ccc2c1` [Compound 3, 2-(6-Nitro-2-quinolinyl)-(1S,4S)-2,5-diazabicyclo-[2.2.1]-heptane fumaric acid salt]: the IC50 came out at 0.24 nM.

The compound `CN1C[C@@H]2C[C@H]1CN2c1ccc2cc([N+](=O)[O-])ccc2n1` [Compound 4, 2-(6-Nitro-2-quinolinyl)-5-methyl-(1S,4S)-2,5-diazabicyclo-[2.2.1]-heptane fumaric acid salt] gave an IC50 of 3.4 nM.

Still in this experiment, the particulars now being: synaptosomes from cerebral cortices of male Wistar rats; 3H-5-HT 1 nM; 30 minutes at 37° C.; read-out: Serotonin uptake IC50.
For the compound `CN1C[C@@H]2C[C@H]1CN2c1ccc2ccccc2n1` [Compound 2, 2-(2-Quinolinyl)-5-methyl-(1S,4S)-2,5-diazabicyclo-[2.2.1]-heptane], the IC50 is 130 nM.

`CN1C[C@@H]2C[C@H]1CN2c1ccc2cc(N)ccc2n1` [Compound 5, 2-(6-Amino-2-quinolinyl)-5-methyl-(1S,4S)-2,5-diazabicyclo-[2.2.1]-heptane fumaric acid salt]: the 50% inhibitory concentration (IC50) came to 840 nM.

As for `c1ccc2sc(N3C[C@@H]4C[C@H]3CN4)nc2c1` [Compound 7, 2-(2-Benzothiazolyl)-(1S,4S)-2,5-diazabicyclo-[2.2.1]-heptane fumaric acid salt], the concentration for half-maximal inhibition (IC50) came to 350 nM.

For the origin of these results see patent US7329754B2, “2,5-diazabicyclo[2.2.1]heptane derivatives” (Neurosearch A/S, priority 2001, dated 2008).
